Values joined by “and” are separate entries in the source; they are usually repeats but may differ in a detail not shown here. Identical values can stand only once.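 Compound exposure: 48 hours, 5 concentrations, 96-well plates. The concentration for 50% growth inhibition is given as GI50. The concentration for full growth arrest is given as TGI.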
What was measured:
Test in all cases: NCI anticancer screen, dose series, 48 h
SF-268 CNS = test system: SF-268 CNS
OVCAR-3 ovarian = test system: OVCAR-3 ovarian
786-0 renal = test system: 786-0 renal
SK-MEL-5 melanoma = test system: SK-MEL-5 melanoma
M14 melanoma = test system: M14 melanoma
RPMI-8226 leukemia = test system: RPMI-8226 leukemia
U251 CNS = test system: U251 CNS
SF-295 CNS = test system: SF-295 CNS
A498 renal = test system: A498 renal
T-47D breast = test system: T-47D breast

| Structure (SMILES) | TGI (SF-268 CNS) | TGI (OVCAR-3 ovarian) | TGI (786-0 renal) | TGI (SK-MEL-5 melanoma) | TGI (M14 melanoma) | TGI (RPMI-8226 leukemia) | TGI (U251 CNS) | TGI (SF-295 CNS) | GI50 (A498 renal) | TGI (A498 renal) | GI50 (786-0 renal) | GI50 (SK-MEL-5 melanoma) | GI50 (RPMI-8226 leukemia) | GI50 (U251 CNS) | GI50 (T-47D breast) | TGI (T-47D breast) | GI50 (SF-268 CNS) | GI50 (M14 melanoma) | GI50 (SF-295 CNS) | GI50 (OVCAR-3 ovarian) |
| --- | --- | --- | --- | --- | --- | --- | --- | --- | --- | --- | --- | --- | --- | --- | --- | --- | --- | --- | --- | --- |
| CC(=O)Nc1cc(N(CCOS(C)(=O)=O)CCOS(C)(=O)=O)ccc1N=O | > 100 µM | > 100 µM | > 100 µM | > 100 µM | > 100 µM | > 100 µM | > 100 µM | > 100 µM | – | – | – | – | – | – | – | – | – | – | – | – |
| C=C(C)[C@@H]1CC[C@]2(C(=O)O)CC[C@]3(C)[C@H](CC[C@@H]4[C@@]5(C)C[C@@H](CC#Cc6ccc(C(F)(F)F)cc6)[C@H](O)C(C)(C)[C@@H]5CC[C@]43C)[C@@H]12 | – | – | 21.9 µM | > 100 µM | – | > 100 µM | 4.75 µM | – | 3.16 µM | > 100 µM | 3.2 µM | 8.97 µM | 4.01 µM | 1.98 µM | 4.75 µM | > 100 µM | – | – | – | – |
| CCCCCCCCOCC(O)COC(=O)CCCCCCC (configuration not stated) | > 100 µM | 64.8 µM | > 100 µM | > 100 µM | > 100 µM | > 100 µM | > 100 µM | > 100 µM | – | > 100 µM | – | – | – | – | – | – | – | – | – | – |
| CCOC(=O)CSC(=O)NCCCl | > 100 µM | > 100 µM | > 100 µM | – | > 100 µM | > 100 µM | > 100 µM | > 100 µM | – | > 100 µM | – | – | > 100 µM | – | – | – | – | – | – | – |
| NS(=O)(=O)c1ccc(NC2=CC(=O)C(=O)c3ccccc32)cc1 | > 100 µM | > 100 µM | > 100 µM | > 100 µM | > 100 µM | > 100 µM | > 100 µM | > 100 µM | – | > 100 µM | – | – | – | – | – | – | – | – | – | – |
| O=C1c2nsnc2C(=O)c2c(F)c(F)c(F)c(F)c21 | 3.17 µM | – | 3.01 µM | 2.52 µM | 0.629 µM | 1.63 µM | 2.94 µM | 2.99 µM | 1.6 µM | 3.57 µM | 1.63 µM | 1.24 µM | 0.374 µM | 1.38 µM | 0.473 µM | 2.37 µM | 1.6 µM | 0.249 µM | 1.4 µM | – |
| CC1=CC(=C(c2ccc(N)cc2)c2ccc(N)cc2)C=CC1=N | 14.4 µM and 19.4 µM and 14.5 µM | 5.49 µM and 15.1 µM and 5.5 µM | 6.53 µM and 26.1 µM and 31.7 µM | 2.3 µM and 5.45 µM and 3.41 µM | 5.25 µM and 17.7 µM and 15.3 µM | – | 5.38 µM and > 36 µM and 13 µM | 5.82 µM and 7.65 µM and 6.06 µM | 2.2 µM | > 27.4 µM and > 100 µM and 32.2 µM | 1.64 µM and 8.26 µM | 0.928 µM | – | 0.316 µM and 0.455 µM and 0.538 µM | 0.27 µM and 1.31 µM | 2.73 µM and 11.8 µM and 8.81 µM | 0.668 µM | 0.867 µM and 3.79 µM | 1.03 µM and 1.32 µM | 1.41 µM and 2.14 µM |
| NC(N)=N/N=C/c1c(-c2cc(Cl)sc2Cl)nc2sccn12 | 3.9 µM | 3.4 µM | 1.79 µM | 1.56 µM | > 50 µM | 1.61 µM | 1.56 µM | 6.15 µM | 1.54 µM | 10.2 µM | 0.924 µM | 0.729 µM | 0.744 µM | 0.799 µM | – | – | 1.26 µM | > 50 µM | 1.62 µM | 1.27 µM |
| CC(/C(=N\Nc1ccccc1)c1ccc(O)cc1)C1C(=O)Oc2ccccc21 (configuration not stated) | – | > 100 µM | > 100 µM | > 100 µM | > 100 µM | > 100 µM | > 100 µM | > 100 µM | – | > 100 µM | – | – | – | – | – | – | – | – | – | – |
| COc1c(C(=O)c2ccc([N+](=O)[O-])cc2)cc(C(C)(C)C)cc1C(C)(C)C | > 100 µM | – | > 100 µM | 32.1 µM | > 100 µM | 31.7 µM | 50.1 µM | > 100 µM | – | > 100 µM | – | – | – | – | – | – | – | – | – | – |
| CCN(CC)CCOc1ccccc1/C=C/c1noc2ccccc12 | 37 µM | 38.1 µM | 26.7 µM | 16.5 µM | 15.4 µM | – | – | 29.7 µM | – | 31.3 µM | – | – | – | – | – | 32.4 µM | – | – | – | – |
| COC(=O)C(C(=O)C(=O)Nc1nc(=S)[nH][nH]1)c1csc(-n2nc(-c3ccccc3)cc2-c2ccccc2)n1 (configuration not stated) | > 100 µM | > 100 µM | > 100 µM | – | > 100 µM | > 100 µM | > 100 µM | – | – | > 100 µM | – | – | – | – | – | – | – | – | – | – |
| COC(=O)/C=C(\C(=O)OC)c1c2c3c(cc(OC)c(OC)c3c3ccccc13)CCN2C | > 100 µM | > 100 µM | > 100 µM | 34.3 µM | > 100 µM | > 100 µM | > 100 µM | > 100 µM | – | – | – | – | – | – | – | – | – | – | – | – |
| COC(=O)C(CC(C)C)NC(=O)NC12CC3CC(CC(F)(C3)C1)C2 (configuration not stated) | – | > 100 µM | > 100 µM | > 100 µM | > 100 µM | > 100 µM | > 100 µM | – | – | > 100 µM | – | – | – | – | – | – | – | – | – | – |
| CC1CC(=O)Nc2ccccc2N1C(=O)CN1CCC(CCCCN(C)C)CC1 (configuration not stated) | > 100 µM | > 100 µM | > 100 µM | > 100 µM | > 100 µM | > 100 µM | > 100 µM | > 100 µM | – | > 100 µM | – | – | – | – | – | – | – | – | – | – |
| O=C1Nc2c(C(F)(F)F)cccc2[C@@]1(c1ccc(O)cc1)c1ccc(OC(F)(F)F)cc1 | 17.5 µM | < 0.0171 µM | 1.21 µM | 16.6 µM | 14.1 µM | 50.8 µM | 20.1 µM | 0.0469 µM | < 0.0148 µM | 0.0337 µM | 0.0265 µM | 0.2 µM | 8.99 µM | 0.319 µM | – | – | 0.327 µM | 0.0537 µM | 0.0193 µM | < 0.01 µM |
| O=C(c1ccccc1)[C@H]1Nc2ccc(Cl)cc2C2c3ccccc3CC21 (some centres not stated) | > 100 µM | 66.1 µM | > 100 µM | 85.2 µM | > 100 µM | > 100 µM | > 100 µM | 67.5 µM | – | – | – | – | – | – | – | – | – | – | – | – |
| CC1C[C@H](C)CC(C(O)CC2CC(=O)N(Cc3ccccc3)C(=O)C2)C1O (some centres not stated) | > 100 µM | > 100 µM | > 100 µM | – | > 100 µM | > 100 µM | > 100 µM | > 100 µM | – | > 100 µM | – | – | – | – | – | – | – | – | – | – |
| O=C(c1ccccc1)N1C2CCC1C(C(F)(F)F)=C2C(F)(F)F | > 100 µM | > 100 µM | > 100 µM | > 100 µM | > 100 µM | > 100 µM | > 100 µM | > 100 µM | – | > 100 µM | – | – | – | – | – | – | – | – | – | – |
| CNCc1cc(OC)ccc1-c1ccc(OC)c(OC)c1OC | > 100 µM | > 100 µM | > 100 µM | > 100 µM | > 100 µM | > 100 µM | > 100 µM | > 100 µM | – | > 100 µM | – | – | – | – | – | – | – | – | – | – |
| CC1=NOC(=O)/C1=C/c1cccc2ccccc12 | > 100 µM | > 100 µM | > 100 µM | > 100 µM | > 100 µM | > 100 µM | > 100 µM | > 100 µM | – | > 100 µM | – | – | – | – | – | – | – | – | – | – |
